The text below walks through data of paper PMC12306498, “Microwave-assisted synthesis of tubulin assembly inhibitors as anticancer agents by aryl ring reversal and conjunctive approach” (RSC Medicinal Chemistry, 2025).

The IC50 is the point on the concentration scale where inhibition reaches its midpoint.

Several values for one entry are separate records, joined by “and”; a condition that tells them apart may be missing. Identical values can stand only once. Like-named read-outs stand apart in the source and are kept apart here.

The test system of experiment [1] is tubulin. In words: Inhibition of tubulin polymerization (tubulin assembly, turbidity at 350 nm). As to conditions: tubulin at 10 μM, read-out: Tubulin IC50 ± SD. Type of experiment: biochemical. As to the method: The assembly reaction mixtures contained 0.8 M monosodium glutamate (pH 6.6 with HCl in a 2 M stock solution), 10 μM tubulin, 4% (v/v) DMSO, and varying concentrations of drug. Following a 15 min preincubation at 30 °C, samples were chilled on ice, GTP to 0.4 mM was added, and turbidity development was followed at 350 nm in a temperature-controlled recording spectrophotometer for 20 min at 30 °C. The extent of reaction was measured. Full experimental details were previously described.[35]

Experiment [2] has as its system tubulin. In words: Inhibition of [3H]colchicine binding to tubulin. The following applies: inhibition of [3H]colchicine binding; tubulin, [3H]colchicine, inhibitor at 1, 5 and 5 μM. Here is the method: The reaction mixtures contained 1.0 μM tubulin, 5.0 μM [^3H]colchicine, and 5.0 or 1.0 μM inhibitor, as indicated, and were incubated for 10 min at 37 °C. Complete details were described previously.[36]

For experiment [3], the system named is MCF-7 human breast carcinoma cells. In words: MCF-7 cell growth inhibition. Type of experiment: cell-based. The following applies: read-out: MCF-7 IC50 ± SD.
The mark [4] stands for this setting: Homo sapiens, MCF7, cells grown for 96 h.
The mark [5] stands for this setting: Homo sapiens, MCF7, 96 h, cells grown for 96 h.

On to `COc1cc(C(=O)c2cn(-c3cccnc3)cc2-c2ccc(N(C)C)cc2)cc(OC)c1OC` [Compound 13, (4-(4-(Dimethylamino)phenyl)-1-(pyridin-3-yl)-1H-pyrrol-3-yl)(3,4,5-trimethoxyphenyl)methanone], for which the IC50 in the experiment with tubulin [1] was determined as 3400 ± 300 nM; in experiment [3] (setting [4]), 1000 ± 100 nM. Also, the “Colch. binding (% ± SD)” value in the experiment with tubulin [2] worked out at 9.6 ± 4%.
In the same order, the values of `COc1cc(C(=O)c2cn(-c3ncccn3)cc2-c2ccc(C)cc2)cc(OC)c1OC` [Compound 14, (1-(Pyrimidin-2-yl)-4-(4-tolyl)-1H-pyrrol-3-yl)(3,4,5-trimethoxyphenyl)methanone] are 1300 ± 40 nM, 170 ± 50 nM and 54 ± 3%.
On to `COc1ccc(-c2cn(-c3ncccn3)cc2C(=O)c2cc(OC)c(OC)c(OC)c2)cc1` [Compound 15, (4-(4-Methoxyphenyl)-1-(pyrimidin-2-yl)-1H-pyrrol-3-yl)(3,4,5-trimethoxyphenyl)methanone], for which the IC50 was 1100 ± 100 nM in the experiment on tubulin [1] and 95 ± 20 nM in experiment [3] (setting [4]). Also, in the experiment with tubulin [2], the “Colch. binding (% ± SD)” value came to 65 ± 5%.
In the same order, the values of `COc1cc(OC)cc(-c2cn(-c3ncccn3)cc2C(=O)c2cc(OC)c(OC)c(OC)c2)c1` [Compound 16, (4-(3,5-Dimethoxyphenyl)-1-(pyrimidin-2-yl)-1H-pyrrol-3-yl)(3,4,5-trimethoxyphenyl)methanone] are 1100 ± 60 nM, 780 ± 40 nM and 25 ± 5%.
As to `COc1cc(C(=O)c2cn(-c3ncccn3)cc2-c2ccc(F)cc2)cc(OC)c1OC` [Compound 18, (4-(4-Fluorophenyl)-1-(pyrimidin-2-yl)-1H-pyrrol-3-yl)(3,4,5-trimethoxyphenyl)methanone], the IC50 in the experiment with tubulin [1] turned out to be 2400 ± 80 nM; in experiment [3] (setting [4]) it was 150 ± 7 nM. For the same molecule, in the experiment on tubulin [2], the “Colch. binding (% ± SD)” value stood at 70 ± 1%.
In the same order, the values of `COc1cc(C(=O)c2cn(-c3ncccn3)cc2-c2ccc(C(F)(F)F)cc2)cc(OC)c1OC` [Compound 19, (1-(Pyrimidin-2-yl)-4-(4-(trifluoromethyl)phenyl)-1H-pyrrol-3-yl)(3,4,5-trimethoxyphenyl)methanone] are 2800 ± 100 nM, 530 nM and 18 ± 4%.
For the molecule `COc1cc(C(=O)c2cn(-c3ncccn3)cc2-c2ccc(Cl)cc2)cc(OC)c1OC` [Compound 20, (4-(4-Chlorophenyl)-1-(pyrimidin-2-yl)-1H-pyrrol-3-yl)(3,4,5-trimethoxyphenyl)methanone], the values for the IC50 (in the experiment with tubulin [1]; in experiment [3] (setting [5])) were 760 ± 100 nM and 68 ± 10 nM, respectively. Also, the “Colch. binding (% ± SD)” value in the experiment on tubulin [2] was 69 ± 4%.
As for `COc1cc(C(=O)c2cn(-c3ncccn3)cc2-c2ccc([N+](=O)[O-])cc2)cc(OC)c1OC` [Compound 21, (4-(4-Nitrophenyl)-1-(pyrimidin-2-yl)-1H-pyrrol-3-yl)(3,4,5-trimethoxyphenyl)methanone], the results for the IC50 (in the experiment on tubulin [1]; in experiment [3] (setting [4])) were 1300 ± 200 nM and 450 ± 100 nM, respectively. Further, in the experiment with tubulin [2], the “Colch. binding (% ± SD)” value is recorded as 34 ± 1%.
Consider `COc1cc(C(=O)c2cn(-c3ncccn3)cc2-c2ccc(N(C)C)cc2)cc(OC)c1OC` [Compound 22, (4-(4-(Dimethylamino)phenyl)-1-(pyrimidin-2-yl)-1H-pyrrol-3-yl)(3,4,5-trimethoxyphenyl)methanone], for which the IC50 in the experiment on tubulin [1] was determined as 680 ± 100 nM; in experiment [3] (setting [4]), 10 nM. Moreover, the “Colch. binding (% ± SD)” value with tubulin [2] is 80 ± 0.2%.
In the same order, the values of `COc1cc(C(=O)c2cn(-c3ncccn3)cc2/C=C/c2ccccc2)cc(OC)c1OC` [Compound 23, (E)-(1-(pyrimidin-2-yl)-4-styryl-1H-pyrrol-3-yl)(3,4,5-trimethoxyphenyl)methanone] are 770 ± 30 nM, 270 ± 10 nM and 65 ± 5%.
In the same order, the values of `COc1cc(C(=O)c2cn(-c3ncccn3)cc2-c2ccc(N3CCCCC3)cc2)cc(OC)c1OC` [Compound 24, (4-(4-(Piperidin-1-yl)phenyl)-1-(pyrimidin-2-yl)-1H-pyrrol-3-yl)(3,4,5-trimethoxyphenyl)methanone] are 630 ± 40 nM, 112 ± 7.7 nM and 35 ± 2%.
`COc1cc(C(=O)c2cn(-c3ccccn3)c3ccc(Cl)cc23)cc(OC)c1OC` [Compound 25, (5-Chloro-1-(pyridin-2-yl)-1H-indol-3-yl)(3,4,5-trimethoxyphenyl)methanone]: the IC50 in the experiment with tubulin [1] was 1500 ± 300 nM; in experiment [3] (setting [5]), 42 nM; in experiment [3] (cells grown for 96 h) it was 41.7 ± 2.6 nM. Also, the “Colch. binding (% ± SD)” value with tubulin [2] came out at 36 ± 4%.
Take `COc1cc(C(=O)c2cn(-c3cccnc3)c3ccc(Cl)cc23)cc(OC)c1OC` [Compound 26, (5-Chloro-1-(pyridin-3-yl)-1H-indol-3-yl)(3,4,5-trimethoxyphenyl)methanone]: the IC50 in the experiment with tubulin [1] was found to be 1500 ± 300 nM; in experiment [3] (setting [5]), 306 ± 13.4 nM. Further, the “Colch. binding (% ± SD)” value in the experiment with tubulin [2] amounted to 23 ± 4%.
Regarding `COc1cc(C(=O)c2cn(-c3ncccn3)c3ccc(Cl)cc23)cc(OC)c1OC` [Compound 27, (5-Chloro-1-(pyrimidin-2-yl)-1H-indol-3-yl)(3,4,5-trimethoxyphenyl)methanone], the IC50 is 1000 ± 90 nM with tubulin [1] and 77 ± 10 nM in experiment [3] (setting [5]). Further, the “Colch. binding (% ± SD)” value with tubulin [2] worked out at 34 ± 5%.
For `COc1cc(C(=O)c2cn(-c3ncccn3)c3ccc(F)cc23)cc(OC)c1OC` [Compound 28, (5-Fluoro-1-(pyrimidin-2-yl)-1H-indol-3-yl)(3,4,5-trimethoxyphenyl)methanone], the IC50 with tubulin [1] was determined as 590 ± 100 nM; in experiment [3] (setting [5]), 73 ± 4 nM. In the experiment with tubulin [2], the “Colch. binding (% ± SD)” value amounted to 45 ± 0.8%.
On the same counts, the results for `COc1cc(C(=O)c2cn(-c3ncccn3)c3ccc(C#N)cc23)cc(OC)c1OC` [Compound 29, 1-(Pyrimidin-2-yl)-3-(3,4,5-trimethoxybenzoyl)-1H-indole-5-carbonitrile] are 1300 ± 70 nM, 230 ± 7 nM and 42 ± 5%.
As for `COc1ccc2c(c1)c(C(=O)c1cc(OC)c(OC)c(OC)c1)cn2-c1ncccn1` [Compound 30, (5-Methoxy-1-(pyrimidin-2-yl)-1H-indol-3-yl)(3,4,5-trimethoxyphenyl)methanone], the values for the IC50 (in the experiment on tubulin [1]; in experiment [3] (setting [5])) were 380 ± 40 nM and 220 ± 60 nM, respectively. Besides, the “Colch. binding (% ± SD)” value in the experiment with tubulin [2] is 71% and 71 ± 5%.
